From paper doi:10.1101/2021.10.07.463234v2 (biorxiv, 2021) come the findings set out here.

Where a name gives a salt, the structure may show the parent alone. Square brackets hold non-standard residues; d marks the D form. Peptide text beside a SMILES is read from it. pGlu = O=C1CC[C@@H](C(=O)O)N1; Thz = O=C(O)[C@@H]1CSCN1

In one assay the target is SARS-CoV-2 Mac1 (Severe acute respiratory syndrome coronavirus 2, UniProt P0DTD1). Briefly: biochemical. The following applies: 100 µM; inhibitor.
The %inhibition is the drop in the measured response relative to a control, in per cent. Higher therefore signals a strong effect. As for `CCCCc1nc(Cl)c(CO)n1Cc1ccc(-c2ccccc2-c2nnn[nH]2)cc1` [Losartan Potassium (DuP 753)], the “%inhibition” value is 0%.
The same measure, in the same setting: the value for `COc1ccc2[nH]c([S@@+]([O-])Cc3ncc(C)c(OC)c3C)nc2c1` [Esomeprazole sodium] was 0%; that for `CN(C)C/C=C/C(=O)Nc1cc2c(Nc3ccc(F)c(Cl)c3)ncnc2cc1O[C@H]1CCOC1` [Afatinib (BIBW2992) Dimaleate] was 21%.
Turning to `CCN(CCO)CCCC(C)Nc1ccnc2cc(Cl)ccc12` (centres unmarked) [Hydroxychloroquine Sulfate], the “%inhibition” value is given as 0%.
Still for that read-out and setting: the value for `COc1nc2ccc(Br)cc2cc1[C@@H](c1ccccc1)[C@@](O)(CCN(C)C)c1cccc2ccccc12` [Bedaquiline] was 4.292%; that for `CC(C)N(CCC(C(N)=O)(c1ccccc1)c1ccccn1)C(C)C` (centres unmarked) [Disopyramide Phosphate] was 0%.
On the same count and under the same terms, the value for `COCCc1ccc(OCC(O)CNC(C)C)cc1` (centres unmarked) [Metoprolol Tartrate] was 45.82%.
Same read-out and setting: the value for `N=C(N)NC(=O)c1nc(Cl)c(N)nc1N` [Amiloride HCl] was 0%.
For `CCC(=O)NS(=O)(=O)c1ccc(-c2c(-c3ccccc3)noc2C)cc1` [Parecoxib], the “%inhibition” value is 0%.
On the same count and under the same terms, the value for `CC(C)(C)c1nc(-c2cccc(NS(=O)(=O)c3c(F)cccc3F)c2F)c(-c2ccnc(N)n2)s1` [Dabrafenib Mesylate] was 0.5368%.
Still for that read-out and setting: the value for `O=C(O)/C=C/c1ccc(Cn2ccnc2)cc1` [Ozagrel] was 4.368%; that for `COc1c(N2C[C@@H]3CCCN[C@@H]3C2)c(F)cc2c(=O)c(C(=O)O)cn(C3CC3)c12` [Moxifloxacin] was 6.66%.

The assay is the same for the next values; noted with them: read-out: %inhibition.
Usually inhibition stands for the percentage by which the read-out fell short of the control. Regarding `CN1CCN(C(c2ccccc2)c2ccccc2)CC1` [Cyclizine 2HCl], the inhibition at 100 µM came out at 9.76%.
On the same count and under the same terms, the value for `Cc1onc(-c2ccccc2)c1-c1ccc(S(N)(=O)=O)cc1` [Valdecoxib] was 9.12%; that for `NC(=O)c1nc(F)cnc1O` [Favipiravir (T-705)] was 0.111%; that for `NC(=O)N1c2ccccc2C=Cc2ccccc21` [Carbamazepine] was 0%.
Same read-out and setting: the value for `O=C(C1CCCCC1)N1CC(=O)N2CCc3ccccc3C2C1` (centres unmarked) [Praziquantel] was 0%.
Consider `Cc1cc(O)ccc1Cl` [Chlorocresol], for which the inhibition at 100 µM is 24.2%.
The same measure, in the same setting: the value for `COC(=O)N[C@H](C(=O)N[C@@H](Cc1ccccc1)[C@@H](O)CN(Cc1ccc(-c2ccccn2)cc1)NC(=O)[C@@H](NC(=O)OC)C(C)(C)C)C(C)(C)C` [Atazanavir Sulfate] was 0%; that for `Cc1ccc([C@@H]2O[C@H](CO)[C@@H](O)[C@H](O)[C@H]2O)cc1Cc1ccc(-c2ccc(F)cc2)s1` [Canagliflozin] was 0%.
Same read-out and setting: the value for `CCc1ccc(Cc2ccc3c(c2)[C@]2(OC3)O[C@H](CO)[C@@H](O)[C@H](O)[C@H]2O)cc1` [Tofogliflozin(CSG 452)] was 1.23%; that for `CC1=NN(c2ccccc2)C(=O)C1` [Edaravone] was 5.75%; that for `CC(=O)N1C[C@H](O)C[C@H]1C(=O)O` [Oxaceprol] was 0%.
On the same count and under the same terms, the value for `CCCCc1nc2cc(/C=C/C(=O)NO)ccc2n1CCN(CC)CC` [Pracinostat (SB939)] was 3.38%.
Regarding `CCOC(=O)OC(C)OC1=C(C(=O)Nc2ccccn2)N(C)S(=O)(=O)c2ccccc21` (centres unmarked) [Ampiroxicam], the inhibition at 100 µM amounted to 5.86%.
Still for that read-out and setting: the value for `CN(C)CCCN1c2ccccc2Sc2ccccc21` [Promazine hydrochloride] was 0%; that for `CN[C@@H]1[C@@H](O)[C@@H](O[C@@H]2[C@@H](O)[C@H](O[C@H]3O[C@H](CN)[C@@H](O)[C@H](O)[C@H]3O)[C@@H](N)C[C@H]2NC(=O)[C@@H](O)CN)OC[C@]1(C)O` [Isepamicin Sulphate] was 5.6%; that for `CCOc1ccc(Cc2cc([C@@H]3O[C@H](SC)[C@@H](O)[C@H](O)[C@H]3O)ccc2Cl)cc1` [Sotagliflozin (LX4211)] was 0%.
On the same count and under the same terms, the value for `CC1=C(/C=C/C(C)=C/C=C/C(C)=C/C=C/C=C(C)/C=C/C=C(C)/C=C/C2=C(C)CCCC2(C)C)C(C)(C)CCC1` [Beta Carotene] was 7.3%; that for `O=C(/C=C/c1cccc(S(=O)(=O)Nc2ccccc2)c1)NO` [Belinostat (PXD101)] was 20%.
Turning to `NC(=O)c1ncn([C@@H]2O[C@H](CO)[C@@H](O)[C@H]2O)c1O` [Mizoribine], the inhibition at 100 µM turned out to be 0%.
Regarding `CO/N=C(\C(=O)N[C@@H]1C(=O)N2C(C(=O)O)=C(COC(N)=O)CS[C@H]12)c1ccco1` [Cefuroxime sodium], the inhibition at 100 µM was 0%.
For the molecule `CC(=O)Nc1ccc(CC(=O)O)cc1` [Actarit], the inhibition at 100 µM was 2.1%.
On the same count and under the same terms, the value for `C=CCNC(N)=S` [Allylthiourea] was 7.98%; that for `NC(=O)N1c2ccccc2CC(=O)c2ccccc21` [Oxcarbazepine] was 0%.
Same read-out and setting: the value for `Cc1ncc([N+](=O)[O-])n1CCO` [Metronidazole] was 16.9%; that for `CC(C)OC(=O)[C@H](C)N[P@](=O)(OC[C@H]1O[C@@H](n2ccc(=O)[nH]c2=O)[C@](C)(F)[C@@H]1O)Oc1ccccc1` [Sofosbuvir (PSI-7977, GS-7977)] was 42.9%; that for `NCCCNCCSP(=O)(O)O` [Amifostine] was 0%.
Same read-out and setting: the value for `OC(CCN1CCCCC1)(c1ccccc1)C1CCCCC1` (centres unmarked) [Trihexyphenidyl hydrochloride] was 2.89%; that for `Nc1nc(O)c2ncn(CCC(CO)CO)c2n1` [Penciclovir] was 14.9%; that for `C[N+](C)(C)CCOC(N)=O` [Carbachol] was 3.56%.
Regarding `Nc1nc(=O)n([C@@H]2CS[C@H](CO)O2)cc1F` [Emtricitabine], the inhibition at 100 µM was 0%.
The same measure, in the same setting: the value for `CNC(=C[N+](=O)[O-])NCCSCc1csc(CN(C)C)n1` [Nizatidine] was 46.1%.
The same measure, in the same setting: the value for `Cc1c(-c2cnccn2)ssc1=S` [Oltipraz] was 0%.
Still for that read-out and setting: the value for `N=C(N)NCCC[C@H](N)C(=O)O` [L-Arginine HCl (L-Arg)] was 0%; that for `CCCOC(C(=O)OC1CCN(C)CC1)(c1ccccc1)c1ccccc1` [Propiverine hydrochloride] was 21.7%; that for `CC(N)C12CC3CC(CC(C3)C1)C2` (centres unmarked) [Rimantadine] was 28.1%.
Turning to `Cc1ncc(CO)c(CO)c1O` [Pyridoxine], the inhibition at 100 µM was found to be 0%.
As to `COc1cc(C)c(/C=C/C(C)=C/C=C/C(C)=C/C(=O)O)c(C)c1C` [Acitretin], the inhibition at 100 µM amounted to 7.72%.
For `C#C[C@]1(O)CC[C@H]2[C@@H]3CCC4=CC(=O)CC[C@@H]4[C@H]3CC[C@@]21C` [Norethindrone], the inhibition at 100 µM stood at 0%.
The same measure, in the same setting: the value for `Cn1c([N+](=O)[O-])cnc1COC(N)=O` [Ronidazole] was 0%; that for `CCN(CC)CCOCCOC(=O)C1(c2ccccc2)CCCC1` [Pentoxyverine Citrate] was 24.6%.
On the same count and under the same terms, the value for `O[C@@H](COc1cccc2ncccc12)CN1CCN(C2c3ccccc3[C@@H]3[C@H](c4ccccc42)C3(F)F)CC1` (some centres unmarked) [Zosuquidar (LY335979) 3HCl] was 0%; that for `CC(=O)OCC1=C(C(=O)O)N2C(=O)[C@@H](NC(=O)Cc3cccs3)[C@H]2SC1` [Cephalothin] was 8.54%; that for `COc1cc(C(=O)NS(=O)(=O)c2ccccc2C)ccc1Cc1cn(C)c2ccc(NC(=O)OC3CCCC3)cc12` [Zafirlukast] was 0%.
For the molecule `Cc1cc2c(cc1S(N)(=O)=O)S(=O)(=O)CCC2` [Meticrane], the inhibition at 100 µM was determined as 0%.
On the same count and under the same terms, the value for `O[C@H]1[C@H](O)[C@@H](O)[C@H](O)[C@@H](O)[C@H]1O` [i-Inositol] was 0%; that for `CCCCOc1cc(C(=O)NCCN(CC)CC)c2ccccc2n1` [Cinchocaine] was 0%; that for `CC(C)[C@H]1C(=O)N[C@@H](CCCN=C(N)N)C(=O)NCC(=O)N[C@@H](CC(=O)O)C(=O)N[C@H](Cc2ccccc2)C(=O)N1C` [Cilengitide?trifluoroacetate] was 10.8%.
Consider `COc1ccc(O)cc1` [Mequinol], for which the inhibition at 100 µM amounted to 0%.
As for `COc1ccc(C(Cl)=C(c2ccc(OC)cc2)c2ccc(OC)cc2)cc1` [Chlorotrianisene], the inhibition at 100 µM came to 0%.
For the molecule `CC(=O)OCC(CCn1cnc2cnc(N)nc21)COC(C)=O` [Famciclovir], the inhibition at 100 µM was 0%.
Same read-out and setting: the value for `CCc1c(Cl)c(O)c(Cl)c(O)c1C(=O)O[C@H]1[C@H](O)[C@H](OC)[C@H](OC/C2=C\C=C\C[C@H](O)/C(C)=C/[C@H](CC)[C@@H](O[C@@H]3OC(C)(C)[C@@H](OC(=O)C(C)C)[C@H](O)[C@@H]3O)/C(C)=C/C(C)=C/C[C@@H]([C@@H](C)O)OC2=O)O[C@@H]1C` [Fidaxomicin] was 5.76%; that for `CC(=O)N[C@@H](CS)C(=O)O` [Acetylcysteine] was 0%.
The same measure, in the same setting: the value for `Cc1ccc(C)c(OCCCC(C)(C)C(=O)O)c1` [Gemfibrozil] was 45.1%; that for `C=C1CC[C@H](O)C/C1=C/C=C1\CCC[C@]2(C)[C@@H]([C@H](C)CCCC(C)(C)O)CC[C@@H]12` [Calcifediol] was 0%.
Regarding `Cc1c(O)cccc1C(=O)N[C@@H](CSc1ccccc1)[C@H](O)CN1C[C@H]2CCCC[C@H]2C[C@H]1C(=O)NC(C)(C)C` [Nelfinavir Mesylate], the inhibition at 100 µM was 0.155%.
Same read-out and setting: the value for `O=C1CC[C@@H](C(=O)N2CSC[C@H]2C(=O)O)N1` [Pidotimod] ([pGlu]-[Thz]-OH) was 4.19%.
The same measure, in the same setting: the value for `CC(=O)OC/C=C(C)/C=C/C=C(C)/C=C/C1=C(C)CCCC1(C)C` [Vitamin A Acetate] was 4.44%; that for `c1cnc2cc3c(cc2n1)[C@@H]1CNC[C@H]3C1` [Varenicline Tartrate] was 0%; that for `CC1(C)CCC(C)(C)c2cc(NC(=O)c3ccc(C(=O)O)cc3)ccc21` [Tamibarotene] was 1.99%.
